These results are taken from ChEMBL document CHEMBL4842376, “Design, synthesis and biological evaluation of novel hybrids targeting mTOR and HDACs for potential treatment of hepatocellular carcinoma” (Eur J Med Chem, 2021).

The source made the active and inactive calls. The rule behind the calls is not given here.

In one data set the test system is Bel-7402. As to the kind of experiment: Antiproliferative activity against human Bel-7402 cells assessed as inhibition of cell growth measured after 72 hrs by MTT assay. To be noted: Bel-7402, 72 h. Format: functional, cell-based.
A short description of data set [1]: Metabolic stability in rat liver microsomes assessed as parent compound remaining at 10 ug/ml measured after 1 hr in the presence of NADPH by HPLC analysis. Format: ADME, Microsome. Conditions: at 10 µg/mL; for Stabilty: microsomes, 1 h.
The subject of a further data set is SNU-423. As to the kind of experiment: Antiproliferative activity against human SNU-423 cells assessed as inhibition of cell growth measured after 72 hrs by MTT assay. Format: functional, cell-based. To be noted: SNU-423, 72 h.
The next data set relates to PLC-PRF-5. The data set can be described thus: Antiproliferative activity against human PLC-PRF-5 cells assessed as inhibition of cell growth measured after 72 hrs by MTT assay. Format: functional, cell-based. Conditions: PLC-PRF-5, 72 h.
The next data set has as its system HepG2. The data set can be described thus: Antiproliferative activity against human HepG2 cells assessed as inhibition of cell growth measured after 72 hrs by MTT assay. Conditions: HepG2, 72 h. Format: functional, cell-based.
The next data set has as its system HeLa. As to the kind of experiment: cells. Format: functional, cell-based. Conditions: Homo sapiens, 72 h.
The target of a further data set is Histone deacetylase 2 (Homo sapiens, UniProt Q92769).
Chain of Histone deacetylase 2 (Q92769 whole entry): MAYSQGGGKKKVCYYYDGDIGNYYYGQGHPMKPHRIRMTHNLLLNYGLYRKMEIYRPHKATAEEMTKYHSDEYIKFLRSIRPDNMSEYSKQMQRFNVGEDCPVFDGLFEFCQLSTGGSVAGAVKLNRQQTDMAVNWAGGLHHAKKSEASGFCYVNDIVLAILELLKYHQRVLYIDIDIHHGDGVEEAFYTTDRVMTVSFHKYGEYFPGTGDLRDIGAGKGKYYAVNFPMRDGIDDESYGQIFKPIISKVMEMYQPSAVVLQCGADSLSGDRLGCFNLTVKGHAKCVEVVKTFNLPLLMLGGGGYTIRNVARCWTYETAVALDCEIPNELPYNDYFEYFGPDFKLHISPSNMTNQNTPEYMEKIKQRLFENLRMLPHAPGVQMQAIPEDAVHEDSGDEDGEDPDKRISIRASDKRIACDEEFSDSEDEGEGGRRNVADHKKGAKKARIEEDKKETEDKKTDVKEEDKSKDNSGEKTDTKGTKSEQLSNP
The next data set has as its system CNE-2. The data set can be described thus: cells. Format: functional, cell-based. To be noted: Homo sapiens, CNE-2, 72 h.
In data set [2] the target is T1, Protein deacetylase HDAC6 (Homo sapiens) (UniProt Q9UBN7).
T1 sequence (whole entry): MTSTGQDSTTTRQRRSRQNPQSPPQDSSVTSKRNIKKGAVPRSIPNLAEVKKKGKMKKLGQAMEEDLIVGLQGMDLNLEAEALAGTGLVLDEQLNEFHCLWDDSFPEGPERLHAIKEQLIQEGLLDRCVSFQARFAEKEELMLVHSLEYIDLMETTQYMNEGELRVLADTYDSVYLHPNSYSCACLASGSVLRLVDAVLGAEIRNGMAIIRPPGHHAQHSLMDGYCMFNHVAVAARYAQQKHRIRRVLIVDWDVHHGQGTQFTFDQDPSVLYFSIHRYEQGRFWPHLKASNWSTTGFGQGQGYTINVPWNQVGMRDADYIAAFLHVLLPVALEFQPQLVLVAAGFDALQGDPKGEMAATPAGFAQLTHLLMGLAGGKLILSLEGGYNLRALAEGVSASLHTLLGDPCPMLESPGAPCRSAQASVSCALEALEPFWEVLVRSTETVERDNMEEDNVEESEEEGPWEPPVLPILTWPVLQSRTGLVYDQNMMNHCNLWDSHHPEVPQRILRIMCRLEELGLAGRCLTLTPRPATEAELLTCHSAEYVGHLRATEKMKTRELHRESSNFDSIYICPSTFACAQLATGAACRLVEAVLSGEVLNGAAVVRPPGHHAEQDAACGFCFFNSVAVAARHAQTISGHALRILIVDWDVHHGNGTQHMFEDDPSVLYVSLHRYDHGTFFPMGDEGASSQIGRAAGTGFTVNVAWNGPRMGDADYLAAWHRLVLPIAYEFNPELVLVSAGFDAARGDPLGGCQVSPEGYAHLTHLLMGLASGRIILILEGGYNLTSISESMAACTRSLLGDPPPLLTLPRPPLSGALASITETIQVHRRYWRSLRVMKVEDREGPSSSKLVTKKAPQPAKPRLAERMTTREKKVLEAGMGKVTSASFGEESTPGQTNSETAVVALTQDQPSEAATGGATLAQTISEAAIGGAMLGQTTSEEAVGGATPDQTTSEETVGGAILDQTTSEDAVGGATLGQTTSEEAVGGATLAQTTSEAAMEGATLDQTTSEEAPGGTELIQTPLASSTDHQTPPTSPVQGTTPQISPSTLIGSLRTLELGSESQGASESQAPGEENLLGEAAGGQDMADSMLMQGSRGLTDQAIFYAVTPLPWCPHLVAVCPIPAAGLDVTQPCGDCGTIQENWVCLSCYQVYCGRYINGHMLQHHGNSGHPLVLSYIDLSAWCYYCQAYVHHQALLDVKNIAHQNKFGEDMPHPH
The data set can be described thus: Inhibition of HDAC6 (unknown origin) at 1 uM using Ac-peptide as a substrate pretreated for 15 mins followed by substrate addition relative to control.

For a further data set, the system named is A549. The data set can be described thus: cells. To be noted: Homo sapiens, A549, 72 h. Format: functional, cell-based.
The subject of the next data set is MDA-MB-231. The data set can be described thus: cells. Format: functional, cell-based. To be noted: Homo sapiens, MDA-MB-231, 72 h.
The target in data set [3] is Serine/threonine-protein kinase mTOR (Homo sapiens, UniProt P42345). The data set can be described thus: Inhibition of mTOR (unknown origin) at 1 uM using U-Light-4E-BP1 peptide as a substrate in the presence of ATP incubated for 30 mins by Lance ultra assay relative to control.
The test system of a further data set is SK-HEP1. As to the kind of experiment: cells. Format: functional, cell-based. Conditions: Homo sapiens, SK-HEP1, 72 h.
In the next data set the test system is L02. As to the kind of experiment: cells. Conditions: Homo sapiens, L02, 72 h. Format: ADME, cell-based.
Another data set deals with Histone deacetylase 3 (Homo sapiens, UniProt O15379). The data set can be described thus: Inhibition of HDAC3 (unknown origin) using Ac-peptide as a substrate pretreated for 15 mins followed by substrate addition.
Chain of Histone deacetylase 3 (O15379 whole entry): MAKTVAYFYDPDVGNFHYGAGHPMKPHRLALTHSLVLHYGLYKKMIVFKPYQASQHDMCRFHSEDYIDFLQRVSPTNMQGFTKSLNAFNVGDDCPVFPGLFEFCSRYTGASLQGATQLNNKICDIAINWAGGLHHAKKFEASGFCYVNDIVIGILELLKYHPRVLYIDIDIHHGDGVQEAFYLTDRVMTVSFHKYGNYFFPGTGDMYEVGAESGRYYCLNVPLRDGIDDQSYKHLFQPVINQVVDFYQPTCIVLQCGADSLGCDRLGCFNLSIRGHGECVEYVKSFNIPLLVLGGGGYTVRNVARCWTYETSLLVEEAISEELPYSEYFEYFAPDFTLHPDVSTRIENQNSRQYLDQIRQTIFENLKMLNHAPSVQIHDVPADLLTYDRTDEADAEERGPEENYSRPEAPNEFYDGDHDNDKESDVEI
Data set [4] concerns the target T2, Histone deacetylase (Homo sapiens) (UniProt Q13547+O15379+Q9UBN7+Q92769+Q9UQL6+Q8WUI4+Q9BY41+Q96DB2+P56524+Q9UKV0+Q969S8). As to the kind of experiment: Inhibition of HDAC in human HepG2 cells assessed as upregulation of alpha-tubulin acetylation at 6 uM measured after 24 hrs by western blot analysis. Format: cell-based.
A further data set deals with HCT-116. As to the kind of experiment: cells. Conditions: Homo sapiens, HCT-116, 72 h. Format: functional, cell-based.
A further data set deals with Hep 3B2. The data set can be described thus: cells. Format: functional, cell-based. To be noted: Homo sapiens, Hep3B, 72 h.
The test system of another data set is MCF7. The data set can be described thus: cells. Conditions: Homo sapiens, MCF7, 72 h. Format: functional, cell-based.
For data set [5], the target named is T2, Histone deacetylase (Homo sapiens). As to the kind of experiment: Inhibition of HDAC in human HepG2 cells assessed as upregulation of histone H3 acetylation at 6 uM measured after 24 hrs by western blot analysis. Format: cell-based.
Another data set in a line: in vitro. To be noted: human, L02 cells versus HepG2 cells.
Another data set has as its system Huh-7. As to the kind of experiment: cells. Format: functional, cell-based. To be noted: Homo sapiens, Huh-7, 72 h.
The next data set addresses T3, Histone deacetylase 8 (Homo sapiens, UniProt Q9BY41).
T3 sequence (Q9BY41 whole entry): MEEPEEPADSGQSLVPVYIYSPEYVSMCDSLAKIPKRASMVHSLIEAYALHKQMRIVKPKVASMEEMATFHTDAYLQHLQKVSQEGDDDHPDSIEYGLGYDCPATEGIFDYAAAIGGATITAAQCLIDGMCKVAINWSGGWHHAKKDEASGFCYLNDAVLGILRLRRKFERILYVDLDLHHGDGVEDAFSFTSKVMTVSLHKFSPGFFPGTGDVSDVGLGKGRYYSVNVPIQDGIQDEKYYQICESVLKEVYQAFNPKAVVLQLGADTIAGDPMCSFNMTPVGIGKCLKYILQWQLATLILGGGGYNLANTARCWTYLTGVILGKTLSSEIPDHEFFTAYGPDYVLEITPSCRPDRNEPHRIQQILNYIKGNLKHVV
The data set can be described thus: Inhibition of HDAC8 (unknown origin) using Ac-peptide as a substrate pretreated for 15 mins followed by substrate addition.

The target in data set [6] is T4, Protein deacetylase HDAC6 (Homo sapiens, UniProt Q9UBN7).
T4 sequence (Q9UBN7 whole entry): T1 sequence (whole entry)
The data set can be described thus: Inhibition of HDAC6 (unknown origin) using Ac-peptide as a substrate pretreated for 15 mins followed by substrate addition.

A further data set has as its target Histone deacetylase 1 (Homo sapiens, UniProt Q13547). The data set can be described thus: Inhibition of HDAC1 (unknown origin) using Ac-peptide as a substrate pretreated for 15 mins followed by substrate addition.

Chain of Histone deacetylase 1 (Q13547 whole entry): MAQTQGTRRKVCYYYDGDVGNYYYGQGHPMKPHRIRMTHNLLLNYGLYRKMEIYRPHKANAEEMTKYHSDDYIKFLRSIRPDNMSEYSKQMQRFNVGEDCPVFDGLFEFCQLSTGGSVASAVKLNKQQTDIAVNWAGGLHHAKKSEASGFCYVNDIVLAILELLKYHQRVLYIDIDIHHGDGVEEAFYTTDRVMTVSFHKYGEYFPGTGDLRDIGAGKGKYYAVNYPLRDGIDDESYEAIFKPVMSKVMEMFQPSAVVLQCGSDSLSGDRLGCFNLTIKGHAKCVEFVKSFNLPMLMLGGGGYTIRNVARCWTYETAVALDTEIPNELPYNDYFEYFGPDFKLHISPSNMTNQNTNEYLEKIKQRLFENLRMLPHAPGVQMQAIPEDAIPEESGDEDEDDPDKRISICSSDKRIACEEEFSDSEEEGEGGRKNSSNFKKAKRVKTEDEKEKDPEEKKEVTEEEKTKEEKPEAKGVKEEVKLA
Description for A549: Antiproliferative activity against human A549 cells assessed as inhibition of cell growth measured after 72 hrs by MTT assay
Description for CNE-2: Antiproliferative activity against human CNE-2 cells assessed as inhibition of cell growth measured after 72 hrs by MTT assay
Description for HCT-116: Antiproliferative activity against human HCT-116 cells assessed as inhibition of cell growth measured after 72 hrs by MTT assay
Description for HeLa: Antiproliferative activity against human HeLa cells assessed as inhibition of cell growth measured after 72 hrs by MTT assay
Description for Hep 3B2: Antiproliferative activity against human Hep3B cells assessed as inhibition of cell growth measured after 72 hrs by MTT assay
Description for Huh-7: Antiproliferative activity against human Huh-7 cells assessed as inhibition of cell growth measured after 72 hrs by MTT assay
Description for L02: Cytotoxicity against human L02 cells assessed as reduction in cell viability measured after 72 hrs by MTT assay
Description for MCF7: Antiproliferative activity against human MCF7 cells assessed as inhibition of cell growth measured after 72 hrs by MTT assay
Description for MDA-MB-231: Antiproliferative activity against human MDA-MB-231 cells assessed as inhibition of cell growth measured after 72 hrs by MTT assay
Description for SK-HEP1: Antiproliferative activity against human SK-HEP1 cells assessed as inhibition of cell growth measured after 72 hrs by MTT assay
Description for in vitro: Selectivity index, ratio of IC50 for cytotoxicity against human L02 cells to IC50 for antiproliferative activity against human HepG2 cells

On to `O=C(CCCCCCC(=O)Nc1ccccc1)NO` [VORINOSTAT], for which the IC50 came out at 27400 nM in the data set on Bel-7402, 79 nM with SNU-423 and 2220 nM in the data set on PLC-PRF-5. Moreover, in data set [1], the Stabilty result is listed as “Stable”.
Regarding `Nc1nc2cc(-c3nn(CCCCCCCC(=O)NO)c4ncnc(N)c34)ccc2o1`, the IC50 in the data set on HepG2 was 3640 nM; with HeLa it was 12900 nM; against Histone deacetylase 2 it was 3.4 nM; with Bel-7402, 13200 nM; in the data set on CNE-2 it was 2250 nM; in the data set on A549, 8360 nM. In addition, the IC50 in the data set with SNU-423 worked out at 280 nM; in the data set on MDA-MB-231, 2900 nM; in the data set with SK-HEP1, 10700 nM; in the data set with L02, 8040 nM; at Histone deacetylase 3 it was 7.1 nM; in the data set with HCT-116 it was 3150 nM. Besides, the IC50 in the data set with Hep 3B2 was determined as 10300 nM; in the data set on MCF7 it was 7220 nM; with Huh-7, 2770 nM; on Histone deacetylase 8, 334 nM; in data set [6], 6.73 nM; on Histone deacetylase 1, 2.5 nM. Moreover, in the data set on PLC-PRF-5, the IC50 is 30500 nM. Besides, the inhibition in [2] amounted to 99.1%; in data set [3], 99.6%. In addition, in data set [1] (liver microsomes, read-out: Stabilty), the remaining at 1 h, 10 ug/ml was determined as 63.9%. Also, the inhibition entry in [4] and in data set [5] was “Active” throughout. Also, the selectivity ratio in “in vitro” came out at 2.21.
As for `Nc1nc2cc(-c3nn(CCCCC(=O)NO)c4ncnc(N)c34)ccc2o1`, the IC50 in the data set with HepG2 is 2100 nM; with HeLa, 32200 nM; in the data set with Bel-7402, 2400 nM; in the data set with CNE-2 it was greater than 50000 nM; in the data set with A549, greater than 100000 nM; in the data set with SNU-423, 3030 nM. The IC50 with MDA-MB-231 amounted to 21200 nM; in the data set with SK-HEP1, 6400 nM; in the data set with HCT-116, 34000 nM; with Hep 3B2 it was 33700 nM; with MCF7, 14000 nM; with Huh-7, 9220 nM. Besides, the IC50 in the data set with PLC-PRF-5 came to 29600 nM. In addition, the inhibition in data set [2] came out at 95.1%; in data set [3] it was 99.4%.
As for `CC(C)n1nc(-c2ccc3oc(N)nc3c2)c2c(N)ncnc21` [SAPANISERTIB], the IC50 is 2130 nM in the data set with HepG2; 36 nM with HeLa; greater than 100000 nM in the data set with Bel-7402; 101 nM in the data set on CNE-2; 174 nM with A549; 15 nM in the data set with SNU-423. For the same compound, the IC50 with MDA-MB-231 was 31 nM; in the data set with SK-HEP1, 8 nM; with L02, 280 nM; in the data set with HCT-116 it was 48 nM; in the data set on Hep 3B2, 4430 nM; in the data set on MCF7, 53 nM. For the same compound, the IC50 with Huh-7 came out at 7 nM; in the data set on PLC-PRF-5, 6630 nM. Besides, the Stabilty entry in [1] is recorded as “Stable”.
